According to ChEMBL document CHEMBL3885861, “Open TG-GATES”:

Species on record: Rattus norvegicus
Assay: Open TG-GATES - Regimen: Daily Repeat
Format: toxicity, organism-based, Sprague-Dawley
Design: regimen Daily Repeat, gender Male, age 6 weeks
Settings: in vivo, po, route gavage; for APTT / Bas / Eos / Fbg / Hb / Ht / Lym / MCH / MCHC / MCV / Mono / Neu / PT / Plat / RBC / Ret / WBC: tissue Blood; for KIDNEY_L / KIDNEY_R / KIDNEY_TOTAL: tissue Kidney; for LIVER: tissue Liver; for A/G / ALP / ALT / AST / BUN / CRE / Ca / Cl / DBIL / GLC / IP / K / LDH / Na / PL / RALB / TBIL / TC / TG / TP / gamma-GTP: tissue Plasma
[1] = 100 mg/kg, 72 h, dose level Middle, time 3 day
[2] = 100 mg/kg, […], dose level Middle, time 7 day
[3] = 100 mg/kg, […], dose level Middle, time 14 day
[4] = 100 mg/kg, […], dose level Middle, time 28 day
[5] = 300 mg/kg, 72 h, dose level High, time 3 day
[6] = 300 mg/kg, […], dose level High, time 7 day
[7] = 300 mg/kg, […], dose level High, time 14 day
[8] = 300 mg/kg, […], dose level High, time 28 day

## Clc1c(Cl)c(Cl)c(Cl)c(Cl)c1Cl [PERCHLOROBENZENE]
[1]
  TERMINAL_BW: 223.3 g
  APTT: 15.9 s
  Bas: 0%
  Eos: 1.2%
  Fbg: 221.4 mg/dL
  Hb: 14.1 g/dL
  Ht: 42.1%
  Lym: 73.2%
  MCH: 21.7 pg
  MCHC: 33.5%
  MCV: 64.8 fL
  Mono: 7.4%
  Neu: 18.2%
  PT: 11.2 s
  Plat: 104.2 x10_4/uL
  RBC: 650.6 x10_4/ul
  Ret: 7.5%
  WBC: 113.8 x10_2/uL
  KIDNEY_L: 1 g
  KIDNEY_R: 1 g
  KIDNEY_TOTAL: 2 g
  LIVER: 13.1 g
  A/G: 1.8
  ALP: 823 IU/L
  ALT: 43.4 IU/L
  AST: 65.8 IU/L
  BUN: 16 mg/dL
  CRE: 0.5 mg/dL
  Ca: 10.6 mg/dL
  Cl: 106.2 meq/L
  DBIL: 0.006 mg/dL
  GLC: 194.8 mg/dL
  IP: 8.7 mg/dL
  K: 5.2 meq/L
  LDH: 121.4 IU/L
  Na: 139 meq/L
  PL: 168 mg/dL
  RALB: 3.7 g/dL
  TBIL: 0.4 mg/dL
  TC: 91.8 mg/dL
  TG: 162.4 mg/dL
  TP: 5.8 g/dL
  gamma-GTP: 1.6 IU/L
[2]
  TERMINAL_BW: 265.6 g
  APTT: 17.2 s
  Bas: 0%
  Eos: 1.2%
  Fbg: 238.8 mg/dL
  Hb: 14.5 g/dL
  Ht: 43.3%
  Lym: 64.2%
  MCH: 21.3 pg
  MCHC: 33.4%
  MCV: 63.7 fL
  Mono: 14.4%
  Neu: 20.4%
  PT: 11.7 s
  Plat: 115.6 x10_4/uL
  RBC: 680.8 x10_4/ul
  Ret: 5.7%
  WBC: 104 x10_2/uL
  KIDNEY_L: 1.2 g
  KIDNEY_R: 1.2 g
  KIDNEY_TOTAL: 2.3 g
  LIVER: 17.2 g
  A/G: 1.9
  ALP: 631.4 IU/L
  ALT: 33 IU/L
  AST: 59.2 IU/L
  BUN: 17.2 mg/dL
  CRE: 0.7 mg/dL
  Ca: 10.7 mg/dL
  Cl: 104.2 meq/L
  DBIL: 0.01 mg/dL
  GLC: 179.8 mg/dL
  IP: 7.9 mg/dL
  K: 4.9 meq/L
  LDH: 127.8 IU/L
  Na: 137.8 meq/L
  PL: 191.6 mg/dL
  RALB: 3.9 g/dL
  TBIL: 0.5 mg/dL
  TC: 112.4 mg/dL
  TG: 151.6 mg/dL
  TP: 6.1 g/dL
  gamma-GTP: 1.8 IU/L
[3]
  TERMINAL_BW: 308.5 g
  APTT: 19.7 s
  Bas: 0%
  Eos: 1%
  Fbg: 263.2 mg/dL
  Hb: 14.5 g/dL
  Ht: 43.3%
  Lym: 77.6%
  MCH: 20.9 pg
  MCHC: 33.6%
  MCV: 62.3 fL
  Mono: 8%
  Neu: 13.6%
  PT: 12.2 s
  Plat: 117.2 x10_4/uL
  RBC: 695 x10_4/ul
  Ret: 4.6%
  WBC: 156.2 x10_2/uL
  KIDNEY_L: 1.3 g
  KIDNEY_R: 1.3 g
  KIDNEY_TOTAL: 2.5 g
  LIVER: 21.6 g
  A/G: 2
  ALP: 470.8 IU/L
  ALT: 30.2 IU/L
  AST: 54.2 IU/L
  BUN: 17 mg/dL
  CRE: 0.6 mg/dL
  Ca: 10.4 mg/dL
  Cl: 106.6 meq/L
  DBIL: 0.014 mg/dL
  GLC: 171.2 mg/dL
  IP: 7.8 mg/dL
  K: 4.9 meq/L
  LDH: 102.2 IU/L
  Na: 140.2 meq/L
  PL: 192.6 mg/dL
  RALB: 4.4 g/dL
  TBIL: 0.5 mg/dL
  TC: 115.2 mg/dL
  TG: 145.2 mg/dL
  TP: 6.6 g/dL
  gamma-GTP: 2.8 IU/L
[4]
  TERMINAL_BW: 338.7 g
  APTT: 23.8 s
  Bas: 0%
  Eos: 2.2%
  Fbg: 320.6 mg/dL
  Hb: 15.3 g/dL
  Ht: 46%
  Lym: 65%
  MCH: 19.7 pg
  MCHC: 33.2%
  MCV: 59.4 fL
  Mono: 15.4%
  Neu: 17.8%
  PT: 15.8 s
  Plat: 100.2 x10_4/uL
  RBC: 774.8 x10_4/ul
  Ret: 3%
  WBC: 182.8 x10_2/uL
  KIDNEY_L: 1.5 g
  KIDNEY_R: 1.5 g
  KIDNEY_TOTAL: 2.9 g
  LIVER: 29.5 g
  A/G: 1.6
  ALP: 316.6 IU/L
  ALT: 50.4 IU/L
  AST: 48.8 IU/L
  BUN: 21.8 mg/dL
  CRE: 0.7 mg/dL
  Ca: 11.2 mg/dL
  Cl: 105.6 meq/L
  DBIL: 0.014 mg/dL
  GLC: 159.6 mg/dL
  IP: 9.2 mg/dL
  K: 5.3 meq/L
  LDH: 157.4 IU/L
  Na: 143.4 meq/L
  PL: 193 mg/dL
  RALB: 4.6 g/dL
  TBIL: 0.3 mg/dL
  TC: 120.2 mg/dL
  TG: 116.2 mg/dL
  TP: 7.6 g/dL
  gamma-GTP: 11.4 IU/L
[5]
  TERMINAL_BW: 226 g
  APTT: 15.9 s
  Bas: 0%
  Eos: 1.2%
  Fbg: 225.4 mg/dL
  Hb: 14.3 g/dL
  Ht: 42.9%
  Lym: 71.2%
  MCH: 21.6 pg
  MCHC: 33.2%
  MCV: 65.2 fL
  Mono: 10.6%
  Neu: 16.8%
  PT: 11 s
  Plat: 98.4 x10_4/uL
  RBC: 658.8 x10_4/ul
  Ret: 8%
  WBC: 106.3 x10_2/uL
  KIDNEY_L: 1 g
  KIDNEY_R: 1 g
  KIDNEY_TOTAL: 2 g
  LIVER: 13.7 g
  A/G: 2.1
  ALP: 720.6 IU/L
  ALT: 41 IU/L
  AST: 64.8 IU/L
  BUN: 15 mg/dL
  CRE: 0.6 mg/dL
  Ca: 10.7 mg/dL
  Cl: 105.8 meq/L
  DBIL: 0.002 mg/dL
  GLC: 184 mg/dL
  IP: 8.3 mg/dL
  K: 5.1 meq/L
  LDH: 186 IU/L
  Na: 138.8 meq/L
  PL: 165.8 mg/dL
  RALB: 3.9 g/dL
  TBIL: 0.5 mg/dL
  TC: 92.2 mg/dL
  TG: 160.4 mg/dL
  TP: 5.7 g/dL
  gamma-GTP: 1.4 IU/L
[6]
  TERMINAL_BW: 262.7 g
  APTT: 16.1 s
  Bas: 0%
  Eos: 1%
  Fbg: 255.6 mg/dL
  Hb: 14.2 g/dL
  Ht: 43.1%
  Lym: 71.2%
  MCH: 21.5 pg
  MCHC: 33%
  MCV: 65 fL
  Mono: 9.4%
  Neu: 18.4%
  PT: 11.2 s
  Plat: 115 x10_4/uL
  RBC: 662 x10_4/ul
  Ret: 6.3%
  WBC: 117.1 x10_2/uL
  KIDNEY_L: 1.2 g
  KIDNEY_R: 1.3 g
  KIDNEY_TOTAL: 2.5 g
  LIVER: 18.4 g
  A/G: 2.1
  ALP: 604.6 IU/L
  ALT: 35.6 IU/L
  AST: 55.4 IU/L
  BUN: 15.8 mg/dL
  CRE: 0.7 mg/dL
  Ca: 10.9 mg/dL
  Cl: 104.4 meq/L
  DBIL: 0.01 mg/dL
  GLC: 173.4 mg/dL
  IP: 8.9 mg/dL
  K: 4.7 meq/L
  LDH: 178.4 IU/L
  Na: 138.8 meq/L
  PL: 205.8 mg/dL
  RALB: 4.2 g/dL
  TBIL: 0.4 mg/dL
  TC: 124.6 mg/dL
  TG: 147.2 mg/dL
  TP: 6.2 g/dL
  gamma-GTP: 2.6 IU/L
[7]
  TERMINAL_BW: 310.5 g
  APTT: 20.8 s
  Bas: 0%
  Eos: 1.2%
  Fbg: 280.2 mg/dL
  Hb: 13.9 g/dL
  Ht: 41.6%
  Lym: 67.8%
  MCH: 20.7 pg
  MCHC: 33.3%
  MCV: 62.1 fL
  Mono: 14.8%
  Neu: 16.4%
  PT: 12.7 s
  Plat: 120.7 x10_4/uL
  RBC: 669.4 x10_4/ul
  Ret: 4.2%
  WBC: 140.9 x10_2/uL
  KIDNEY_L: 1.4 g
  KIDNEY_R: 1.3 g
  KIDNEY_TOTAL: 2.7 g
  LIVER: 24.3 g
  A/G: 2
  ALP: 379.8 IU/L
  ALT: 32.8 IU/L
  AST: 51.6 IU/L
  BUN: 17.2 mg/dL
  CRE: 0.6 mg/dL
  Ca: 10.6 mg/dL
  Cl: 107.4 meq/L
  DBIL: 0.01 mg/dL
  GLC: 165.6 mg/dL
  IP: 8 mg/dL
  K: 4.6 meq/L
  LDH: 199.6 IU/L
  Na: 140.4 meq/L
  PL: 199.6 mg/dL
  RALB: 4.4 g/dL
  TBIL: 0.4 mg/dL
  TC: 124 mg/dL
  TG: 144.4 mg/dL
  TP: 6.8 g/dL
  gamma-GTP: 4 IU/L
[8]
  TERMINAL_BW: 358.3 g
  APTT: 22.1 s
  Bas: 0%
  Eos: 1.8%
  Fbg: 305.4 mg/dL
  Hb: 15.1 g/dL
  Ht: 45.5%
  Lym: 73.2%
  MCH: 19.4 pg
  MCHC: 33.2%
  MCV: 58.4 fL
  Mono: 11.8%
  Neu: 13.4%
  PT: 14 s
  Plat: 92 x10_4/uL
  RBC: 779.6 x10_4/ul
  Ret: 2.9%
  WBC: 161.2 x10_2/uL
  KIDNEY_L: 1.6 g
  KIDNEY_R: 1.6 g
  KIDNEY_TOTAL: 3.3 g
  LIVER: 31 g
  A/G: 1.8
  ALP: 213.2 IU/L
  ALT: 41.6 IU/L
  AST: 43.8 IU/L
  BUN: 19.2 mg/dL
  CRE: 0.7 mg/dL
  Ca: 10.8 mg/dL
  Cl: 105.4 meq/L
  DBIL: 0.038 mg/dL
  GLC: 151 mg/dL
  IP: 8.4 mg/dL
  K: 5 meq/L
  LDH: 163.2 IU/L
  Na: 143 meq/L
  PL: 175 mg/dL
  RALB: 4.7 g/dL
  TBIL: 0.3 mg/dL
  TC: 107.6 mg/dL
  TG: 174 mg/dL
  TP: 7.3 g/dL
  gamma-GTP: 7.8 IU/L
